# Test results: publication PMC8665103 (Journal of medicinal chemistry, 2021)
# Read-outs that look alike come from different tables or passages of the source.
# Experiments:
# [1] = assay type: physicochemical; conditions: for Colloid radius ±SD / CAC (critical aggregation concentration): DLS; for CAC (critical aggregation concentration): 50 mM KPi pH 7.0, 1% DMSO
# [2] = target: 3CL-Pro (Severe acute respiratory syndrome coronavirus 2, UniProt P0DTD1); experiment: 3CL-Pro kinetics inhibition assay in the presence of 0.05% Tween-20; assay type: biochemical, SARS-CoV-2; conditions: 0.05% Tween-20 versus literature IC50
# [3] = target: T1, MDH (malate dehydrogenase, from porcine heart) (Sus scrofa, UniProt P00346); experiment: MDH inhibition counter screen with or without 0.01% Triton X-100; assay type: biochemical; conditions: for Hill slope of MDH inhibition: in the absence of detergent; for Effect of 0.01% Triton X-100 detergent on MDH inhibition/activity: addition of 0.01% Triton X-100
# T1 sequence (P00346 25-338): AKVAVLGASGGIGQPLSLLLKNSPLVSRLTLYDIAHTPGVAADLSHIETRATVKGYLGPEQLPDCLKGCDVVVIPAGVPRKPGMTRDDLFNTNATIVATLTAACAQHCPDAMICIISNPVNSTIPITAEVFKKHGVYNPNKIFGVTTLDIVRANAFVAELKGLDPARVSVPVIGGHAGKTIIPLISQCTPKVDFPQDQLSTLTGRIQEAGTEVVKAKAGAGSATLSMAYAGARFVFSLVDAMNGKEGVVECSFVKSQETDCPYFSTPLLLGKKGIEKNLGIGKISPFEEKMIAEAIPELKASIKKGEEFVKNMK
# [4] = target: T2, MDH (Sus scrofa, UniProt P00346); experiment: Colloid centrifugation followed by MDH inhibition of supernatant; assay type: biochemical, porcine; conditions: 14,000 rpm, 1 h, 4 °C; supernatant tested
# T2 sequence (P00346 25-338): T1 sequence (P00346 25-338)
# [5] = target: AmpC β-lactamase (Escherichia coli, UniProt P00811); experiment: AmpC β-lactamase counter screen with or without 0.01% Triton X-100; assay type: biochemical
# Sequence of AmpC β-lactamase (P00811 20-377): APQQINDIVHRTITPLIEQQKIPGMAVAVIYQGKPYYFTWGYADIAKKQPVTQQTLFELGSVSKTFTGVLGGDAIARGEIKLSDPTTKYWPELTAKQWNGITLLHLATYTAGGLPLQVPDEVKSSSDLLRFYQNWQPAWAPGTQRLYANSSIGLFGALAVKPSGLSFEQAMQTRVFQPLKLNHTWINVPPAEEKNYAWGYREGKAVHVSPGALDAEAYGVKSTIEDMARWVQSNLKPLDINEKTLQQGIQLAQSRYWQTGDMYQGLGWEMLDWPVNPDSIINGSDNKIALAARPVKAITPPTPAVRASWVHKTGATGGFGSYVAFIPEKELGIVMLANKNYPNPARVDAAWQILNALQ
molecule,measurement,setting,value
Cc1c(C)c2c(c(C)c1O)CCC(C)(CCCC(C)CCCC(C)CCCC(C)C)O2 (stereo not drawn) [Alpha-Tochopherol],Colloid radius ±SD,[1]; drugs from repurposing library,466 ± 5.6 nm
CC(C)(C)[C@H]1CC[C@H](CC2=C(O)C(=O)c3ccccc3C2=O)CC1 [Buparvaquone],Colloid radius ±SD,[1]; drugs from repurposing library,186 ± 15 nm
COc1c2ccc(-c3ccccc3)oc-2cc(=O)c1C [Dracorhodin],Colloid radius ±SD,[1]; drugs from repurposing library,101 ± 22 nm
Cc1c(-c2ccc(O)cc2)n(Cc2ccc(OCCN3CCCCCC3)cc2)c2ccc(O)cc12 [Bazedoxifene],Colloid radius ±SD,[1]; drugs from repurposing library,2822 ± 814 nm
C[C@@H](NCCCc1cccc(C(F)(F)F)c1)c1cccc2ccccc12 [Cinacalcet],Colloid radius ±SD,[1]; literature hits,77 ± 4 nm
O=C1CCc2ccc(OCCCCN3CCN(c4cccc(Cl)c4Cl)CC3)cc2N1 [Aripiprazole],Colloid radius ±SD,[1]; literature hits,222 ± 5. nm
O=C(O)c1ccc(N2C(=O)/C(=C\c3ccc(-c4ccc([N+](=O)[O-])cc4)o3)C=C2c2ccccc2)cc1 [4E1RCat],Reduction of 3CL-Pro potency in presence of detergent versus literature value,[2],fivefold
same,CAC (critical aggregation concentration),[1]; literature hits,6.6 µM
same,Colloid radius ±SD,[1]; literature hits,102 ± 8 nm
CC(C)=CC[C@@H](O)C1=CC(=O)c2c(O)ccc(O)c2C1=O [Shikonin],Hill slope of MDH inhibition,[3],1.3–1.4
same,Colloid radius ±SD,[1]; literature hits,169 ± 9 nm
COc1ccc(-c2ccc3cc(C(=O)O)ccc3c2)cc1C12CC3CC(CC(C3)C1)C2 [Adapalene],Colloid radius ±SD,[1]; drugs from repurposing library,422 ± 65 nm
O=C(O)c1cccc(CN2C(=O)/C(=C(\c3ccccc3)c3ccc(Cl)cc3)c3ccccc32)c1 [YLF-466D],Colloid radius ±SD,[1]; literature hits,40 ± 0.4 nm
COC(=O)C1=C(C)NC(C)=C(C(=O)OC(C)(C)CN(C)CCC(c2ccccc2)c2ccccc2)C1c1cccc([N+](=O)[O-])c1 (stereo not drawn) [Lercanidipine],Effect of 0.01% Triton X-100 detergent on MDH inhibition/activity,[3],MDH activity is restored
same,Hill slope of MDH inhibition,[3],2.9
same,Colloid radius ±SD,[1]; literature hits,853 ± 147 nm
same,Increase in DLS scattering intensity (Cnts/sec) on particle formation,[1]; aqueous buffer,10 fold
Cc1cc(O)c2c(=O)c3c(O)cc(O)c4c5c(O)cc(O)c6c(=O)c7c(O)cc(C)c8c1c2c(c34)c(c78)c65 [Hypericin],Colloid radius ±SD,[1]; literature hits,143 ± 6 nm
Cc1cc(O)c2c(c1)C(=O)c1cc(O)cc(O)c1C2=O [Emodin],Colloid radius ±SD,[1]; literature hits,58 ± 17 nm
tannic acid,Effect of 0.01% Triton X-100 detergent on MDH inhibition/activity,[3],cannot be reversed by detergent
Brc1c(Br)c(Br)c2[nH]nnc2c1Br [TBB],Particles by DLS,[1],did not show particles by DLS
same,MDH enzyme activity after centrifugation of compound,[4],enzyme activity was restored after centrifugation
Hemin,Hill slope of MDH inhibition,[3],1.3–1.4
same,Reduction of 3CL-Pro potency in presence of detergent versus literature value,[2],2.6 fold
same,CAC (critical aggregation concentration),[1]; literature hits,13 µM
same,Colloid radius ±SD,[1]; literature hits,84 ± 0.9 nm
same,AmpC enzyme activity on addition of 0.01% (v/v) Triton X-100,[5]; at 25 μM hemin,fully restored enzyme activity
same,IC50,"[5]; read-out: AmpC IC50, no detergent",23 µM
Cc1cc(-c2ccc(/N=N/c3ccc4c(S(=O)(=O)[O-])cc(S(=O)(=O)[O-])c(N)c4c3O)c(C)c2)ccc1/N=N/c1ccc2c(S(=O)(=O)[O-])cc(S(=O)(=O)[O-])c(N)c2c1O.[Na+].[Na+].[Na+].[Na+] [Evans Blue],Particles by DLS,[1],did not show particles by DLS
same,MDH enzyme activity after centrifugation of compound,[4],enzyme activity was restored after centrifugation
C/C(=C\c1ccc(C(=O)O)cc1)c1ccc2c(c1)C(C)(C)CCC2(C)C [TTNPB],Colloid radius ±SD,[1]; literature hits,72 ± 3 nm
Oc1c(I)cc(Cl)c2cccnc12 [Clioquinol],Colloid radius ±SD,[1]; literature hits,1818 ± 177 nm
O=C1c2c(O)cccc2Cc2cccc(O)c21 [Anthralin],Colloid radius ±SD,[1]; literature hits,1014 ± 53 nm
COC(=O)C1=C(C)NC(C)=C(C(=O)OCCN2CCN(C(c3ccccc3)c3ccccc3)CC2)C1c1cccc([N+](=O)[O-])c1 (stereo not drawn) [Manidipine],Colloid radius ±SD,[1]; literature hits,929 ± 75 nm
O=c1c(O)c(-c2cc(O)c(O)c(O)c2)oc2cc(O)cc(O)c12 [Myricetin],Colloid radius ±SD,[1]; literature hits,100 ± 4 nm
Cc1cc2c(C(C)C)c(O)c(O)c(C=O)c2c(O)c1-c1c(C)cc2c(C(C)C)c(O)c(O)c(C=O)c2c1O [Gossypol],Colloid radius ±SD,[1]; literature hits,70 ± 6 nm
O=C1C=C2CC3(O)COc4c(ccc(O)c4O)C3=C2C=C1O (stereo not drawn) [Hematein],Colloid radius ±SD,[1]; literature hits,64 ± 1 nm
Clc1ccccc1C(c1ccccc1)(c1ccccc1)n1ccnc1 [Clotrimazole],Colloid radius ±SD,[1]; literature hits,283 ± 15 nm
c1ccc(-c2ccc(C(c3ccccc3)n3ccnc3)cc2)cc1 (stereo not drawn) [Bifonazole],Colloid radius ±SD,[1]; drugs from repurposing library,184 ± 80 nm
